Results on 54 compounds are retold here after paper PMC5706701, “Development of a homogenous high-throughput assay for inositol hexakisphosphate kinase 1 activity” (PLoS ONE, 2017).

The target in this test is T1, Human IP6K1 (Homo sapiens, UniProt Q92551).
T1 construct: GST (N, cleaved yes); made in house; host or cells: C43 E. coli, pGEX-6P-2
In words: IP6K1 high-throughput screen of the Sigma LOPAC (ADP-Glo Max, single point).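 Also: final compound concentration 10µM in 5% DMSO.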 Type of test: biochemical. On the technique in general: ADP-Glo turns the ADP formed in a reaction into a luminescent signal.

Setting [1] is: LOPAC single-point screen, ADP-Glo Max luminescence raw signal per well.
Setting [2] is: LOPAC single-point screen, Z-score relative to plate average and StDev.
[3] abbreviates: Sigma LOPAC single-point screen, ADP-Glo Max raw signal per well.
Setting [4] is: Sigma LOPAC single-point screen, Z-score from plate average and StDev.
The mark [5] stands for this setting: LOPAC single-point screen, Z-score from plate average and StDev.
The mark [6] stands for this setting: LOPAC single-point screen, ADP-Glo Max raw signal per well.
[7] abbreviates: LOPAC single-point screen, Z-score from raw signal with plate average and StDev.
Setting [8] is: LOPAC single-point screen, Z-score against plate average and StDev.

Counter-ions that a name gives are not always drawn. Like-named read-outs stand apart in the source and are kept apart here.

T1 sequence (Q92551 whole entry): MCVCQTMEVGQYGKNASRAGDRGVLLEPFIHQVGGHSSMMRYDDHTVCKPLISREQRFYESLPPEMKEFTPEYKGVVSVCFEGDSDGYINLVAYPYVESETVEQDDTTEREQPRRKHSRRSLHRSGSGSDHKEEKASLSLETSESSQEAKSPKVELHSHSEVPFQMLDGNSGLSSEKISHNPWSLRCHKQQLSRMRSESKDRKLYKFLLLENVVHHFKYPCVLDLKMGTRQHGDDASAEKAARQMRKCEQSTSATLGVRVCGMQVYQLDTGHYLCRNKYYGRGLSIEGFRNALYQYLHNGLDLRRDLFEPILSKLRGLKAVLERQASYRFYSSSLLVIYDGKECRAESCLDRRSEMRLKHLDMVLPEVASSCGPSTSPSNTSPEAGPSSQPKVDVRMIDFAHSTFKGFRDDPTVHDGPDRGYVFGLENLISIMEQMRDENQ

For the compound `CNC[C@H](O)c1ccc(O)c(O)c1` [(-)-Epinephrine bitartrate], under setting [1], the “Raw Signal” value worked out at 51229. For the same compound, the Z-score under setting [2] was -0.7998.

Take `CN1CC[C@@]2(C)c3cc(O)ccc3N(C)[C@@H]12.O=C(O)/C=C/C(=O)O` [(-)-Eseroline fumarate]: under setting [3], the “Raw Signal” value amounted to 57638. Further, the Z-score under setting [4] is reported as 0.5018.

With `C[C@@]12N[C@@H](Cc3ccccc31)c1ccccc12.O=C(O)/C=C\C(=O)O` [(-)-MK-801 hydrogen maleate], the “Raw Signal” value under setting [3] is 58481. Under setting [4], the Z-score is given as 0.6868.

Consider `COc1ccc2cc([C@H](C)C(=O)[O-])ccc2c1.[Na+]` [(-)-Naproxen sodium], for which the “Raw Signal” value under setting [3] worked out at 56716. In addition, the Z-score under setting [4] was 0.3902.

`C=C(C)[C@H]1CC=C(C(=O)O)CC1` [(-)-Perillic acid]: under setting [3], the “Raw Signal” value is recorded as 58838. The Z-score under setting [4] was 0.5467.

For `CNC(=O)Oc1ccc2c(c1)[C@]1(C)CCN(C)[C@@H]1N2C` [(-)-Physostigmine], under setting [1], the “Raw Signal” value turned out to be 62569. Also, under setting [5], the Z-score is 1.503.

As for `C[N+]1(C)[C@@H]2C[C@@H](OC(=O)[C@H](CO)c3ccccc3)C[C@H]1[C@@H]1O[C@@H]12` [(-)-Scopolamine methyl bromide], under setting [6], the “Raw Signal” value turned out to be 55432. Under setting [7], this compound registered a Z-score of -0.115.

With `CCN1CCC[C@H]1CNC(=O)c1cc(S(N)(=O)=O)ccc1OC` [(-)-Sulpiride], the “Raw Signal” value under setting [6] was 56775. This compound also registered a Z-score under setting [8] of 0.1459.

For `Cl.c1ccc([C@H]2CN3CCSC3=N2)cc1` [(-)-Tetramisole hydrochloride], the “Raw Signal” value worked out at 55029 and the Z-score is 0.1068.

Consider `CN(Cc1cnc2nc(N)nc(N)c2n1)c1ccc(C(=O)N[C@@H](CCC(=O)O)C(=O)O)cc1` [(-)Amethopterin], for which the “Raw Signal” value under setting [3] was 61362. Also, the Z-score under setting [4] came to 0.6074.

For the compound `NC/C=C/C(=O)O` [(E)-4-amino-2-butenoic acid], the “Raw Signal” value under setting [1] is on record as 52183. Under setting [2], the Z-score is -1.009.

As for `O=c1[nH]c(=O)n([C@H]2C[C@H](O)[C@@H](CO)O2)cc1/C=C/Br` [(E)-5-(2-Bromovinyl)-2-deoxyuridine], under setting [6], the “Raw Signal” value is given as 57888. Further, the Z-score under setting [8] is on record as -0.004421.

On to `CS(=O)(=O)O.Cc1c(C(=O)c2cccc3ccccc23)c2cccc3c2n1[C@H](CN1CCOCC1)CO3` [(R)-(+)-WIN 55,212-2 mesylate], for which the “Raw Signal” value under setting [3] was found to be 62593. Further, the Z-score under setting [4] is 1.276.

For the compound `N[C@H](C(=O)O)c1cc(O)cc(O)c1` [(S)-3,5-Dihydroxyphenylglycine], the “Raw Signal” value under setting [1] is 63204. Further, the Z-score under setting [5] is 1.632.

With `CC[C@@]1(O)C(=O)OCc2c1cc1n(c2=O)Cc2cc3ccccc3nc2-1` [(S)-(+)-Camptothecin], the “Raw Signal” value under setting [3] came out at 58626. The same compound came in with a Z-score under setting [4] of 0.7025.

Regarding `CCCNC[C@H](O)COc1ccccc1C(=O)CCc1ccccc1.Cl` [(S)-(-)-propafenone hydrochloride], under setting [1], the “Raw Signal” value is 52495. Further, the Z-score under setting [2] is reported as -0.6856.

Take `OC[C@H]1O[C@@H](n2cnc3c(N[C@H]4CC5CCC4C5)ncnc32)[C@H](O)[C@@H]1O` (stereo partly drawn) [(S)-ENBA]: the “Raw Signal” value under setting [6] stood at 53537. Under setting [7], this compound came in with a Z-score of -0.331.

In the case of `C[C@](N)(CCP(=O)(O)O)C(=O)O.Cl` [(S)-MAP4 hydrochloride], the “Raw Signal” value under setting [6] was 53240. In addition, the Z-score under setting [7] is -0.1938.

Consider `CC(C)NC[C@H](O)COc1cccc2ccccc12` [(S)-Propranolol hydrochloride], for which the “Raw Signal” value under setting [3] is given as 59687. For the same compound, the Z-score under setting [4] was 0.7117.

Consider `C/C=C1\C(=O)C[C@H]2[C@@H]3CCC4=CC(=O)CC[C@]4(C)[C@H]3CC[C@]12C` [(Z)-Gugglesterone], for which the “Raw Signal” value under setting [1] came to 49571. This compound also showed a Z-score under setting [2] of -1.1365.

In the case of `Cl.NC[C@@H]1O[C@H](C23CC4CC(CC(C4)C2)C3)Cc2c1ccc(O)c2O` [A-77636 hydrochloride], the “Raw Signal” value under setting [6] came to 56453. Under setting [7], the Z-score was -0.2572.

Take `CCS(=O)(=O)Nc1cccc(C(=C2CCCCC2)c2cnc[nH]2)c1` [A-315456]: the “Raw Signal” value under setting [6] is recorded as 57716. Under setting [8], this compound returned a Z-score of -0.03471.

For `CC1=C(C)C(=O)C(CCCCC#CCCCC#CCO)=C(C)C1=O` [AA-861], the “Raw Signal” value under setting [1] is reported as 50345. Under setting [2], the Z-score is recorded as -1.333.

Turning to `CNC(=O)[C@H]1O[C@@H](n2cnc3c(NCc4ccc(N)cc4)ncnc32)[C@H](O)[C@@H]1O` [AB-MECA], the “Raw Signal” value under setting [1] is reported as 53262. Under setting [2], the Z-score is -0.8192.

Consider `O=C(Cc1ccc(Cl)c(Cl)c1)OCCN1CCCC1` [AC 915 oxalate], for which the “Raw Signal” value under setting [6] is recorded as 57662. The compound further registered a Z-score under setting [8] of -0.04423.

In the case of `NC1(C(=O)O)CCc2cc(C(=O)O)ccc21` (centres unmarked) [AIDA], the “Raw Signal” value under setting [1] was determined as 52578. The compound also displayed a Z-score under setting [2] of -0.9397.

For the compound `O=C(O)CCC/C=C\C[C@@H]1[C@@H](/C=C/[C@H](O)C2Cc3ccccc3C2)[C@@H](F)C[C@@H]1O` [AL-8810], under setting [1], the “Raw Signal” value is recorded as 53863. This compound showed a Z-score under setting [2] of -0.7133.

As to `CCN(CC)c1ncnc2c1ncn2[C@@H]1O[C@H](COP(=O)([O-])OP(=O)([O-])C(Br)(Br)P(=O)([O-])O)[C@@H](O)[C@H]1O.[Na+].[Na+].[Na+]` [ARL 67156 trisodium salt], the “Raw Signal” value under setting [1] is 54051. Further, the Z-score under setting [2] was -0.6802.

Turning to `CC(C)(C)c1o[nH]c(=O)c1CC(N)C(=O)O` (centres unmarked) [ATPA], under setting [6], the “Raw Signal” value came to 57342. Under setting [7], this compound showed a Z-score of -0.1006.

Regarding `CC(C)(C)c1onc(OCP(=O)(O)O)c1CC(N)C(=O)O` (centres unmarked) [ATPO], the “Raw Signal” value under setting [3] is 60120. The same compound returned a Z-score under setting [4] of 0.3887.

As for `CC(N)=O` [Acetamide], the “Raw Signal” value under setting [3] came out at 63288. For the same compound, the Z-score under setting [4] came to 0.9467.

For `CC(=O)Nc1nnc(S(N)(=O)=O)s1` [Acetazolamide], the “Raw Signal” value under setting [1] worked out at 54920. Under setting [2], this compound gave a Z-score of -0.5272.

For `CC(=O)c1ccc(S(=O)(=O)NC(=O)NC2CCCCC2)cc1` [Acetohexamide], under setting [3], the “Raw Signal” value is on record as 64165. The same compound had a Z-score under setting [4] of 1.101.

`CC(=O)OC(C)C[N+](C)(C)C.[Cl-]` (stereo not drawn) [Acetyl-beta-methylcholine chloride]: the “Raw Signal” value under setting [1] turned out to be 54689. In addition, the Z-score under setting [2] is listed as -0.5679.

On to `CC(=O)Oc1ccccc1C(=O)O` [Acetylsalicylic acid], for which the “Raw Signal” value under setting [1] came to 52950. Under setting [2], this compound returned a Z-score of -0.8741.

Regarding `CC(=O)SCC[N+](C)(C)C.[Cl-]` [Acetylthiocholine chloride], the “Raw Signal” value under setting [6] is 58613. This compound gave a Z-score under setting [8] of 0.1233.

`CCCCC[C@H](CC(=O)NO)C(=O)N[C@H](C(=O)N1CCC[C@H]1CO)C(C)C` [Actinonin]: the “Raw Signal” value under setting [3] amounted to 64769. Under setting [4], this compound showed a Z-score of 1.208.

On to `Nc1nc2c(ncn2COCCO)c(=O)[nH]1` [Acyclovir], for which the “Raw Signal” value under setting [1] is 53270. The compound further yielded a Z-score under setting [2] of -0.8178.

Regarding `NCCNC(=O)Cc1ccc(NC(=O)Cc2ccc(Nc3ncnc4c3ncn4[C@@H]3O[C@H](CO)[C@@H](O)[C@H]3O)cc2)cc1` [Adenosine amine congener], under setting [6], the “Raw Signal” value came to 58651. Also, the Z-score under setting [8] turned out to be 0.13.

Consider `Nc1ncnc2c1ncn2[C@@H]1O[C@H](CO)[C@@H](O)[C@H]1O` [Adenosine], for which the “Raw Signal” value under setting [6] is 56689. This compound also had a Z-score under setting [7] of -0.2156.

As to `NCCCCN=C(N)N` [Agmatine sulfate], the “Raw Signal” value under setting [6] came to 56032. The Z-score under setting [7] is listed as -0.3313.

With `CC1=C[C@@H]2c3cccc4[nH]cc(c34)C[C@H]2N(C)C1` [Agroclavine], the “Raw Signal” value under setting [1] is 53866. Also, the Z-score under setting [2] is -0.7128.

Turning to `CC(N)C(=O)OC(C)(C)Cc1ccc(Cl)cc1` (centres unmarked) [Alaproclate hydrochloride], under setting [1], the “Raw Signal” value is recorded as 54794. Moreover, the Z-score under setting [2] is given as -0.5494.

Regarding `CC(C)(C)NCC(O)c1ccc(O)c(CO)c1.CC(C)(C)NCC(O)c1ccc(O)c(CO)c1.O=S(=O)(O)O` (centres unmarked) [Albuterol hemisulfate], the “Raw Signal” value under setting [6] came out at 54773. This compound came in with a Z-score under setting [7] of -0.243.

With `Oc1ncnc2[nH]ncc12` [Allopurinol], the “Raw Signal” value under setting [6] was found to be 56130. The Z-score under setting [7] was -0.3141.

Take `O=c1nc2[nH]c3ccccc3nc-2c(=O)[nH]1` [Alloxazine]: the “Raw Signal” value under setting [6] is 56241. This compound yielded a Z-score under setting [7] of -0.2945.

On to `C=CCc1ccccc1OCC(O)CNC(C)C` (centres unmarked) [Alprenolol hydrochloride], for which, under setting [3], the “Raw Signal” value is 60855. The same compound had a Z-score under setting [4] of 0.5181.

For the compound `CN(C)c1nc(N(C)C)nc(N(C)C)n1` [Altretamine], under setting [1], the “Raw Signal” value was found to be 69030. Under setting [5], this compound had a Z-score of 1.958.

On to `NC12CC3CC(CC(C3)C1)C2` [Amantadine hydrochloride], for which, under setting [1], the “Raw Signal” value is listed as 68782. Under setting [5], this compound returned a Z-score of 1.914.

Regarding `CCn1cc(C(=O)O)c(=O)c2ccc(Cc3ccccc3)nc21` [Amfonelic acid], under setting [7], the Z-score was -0.107.

Regarding `NCCCNCCSP(=O)(O)O` [Amifostine], under setting [1], the “Raw Signal” value stood at 55102. This compound also came in with a Z-score under setting [2] of -0.4951.

With `N=C(N)NC(=O)c1nc(Cl)c(N)nc1N` [Amiloride hydrochloride], the “Raw Signal” value under setting [3] came to 63890. Under setting [4], the Z-score is given as 1.0527.

For the compound `CN1[C@@H]2CC[C@H]1C[C@@H](OC(c1ccccc1)c1ccccc1N)C2` (some centres unmarked) [Aminobenztropine], under setting [6], the “Raw Signal” value was 58792. Under setting [8], the Z-score was 0.1548.

For the compound `NN=C(N)N.NN=C(N)N.O=S(=O)(O)O` [Aminoguanidine hemisulfate], the “Raw Signal” value under setting [6] was 58107. The same compound showed a Z-score under setting [8] of 0.03415.
